The target of this assay is T1, CCT8 in the human mLST8-CCT complex (Homo sapiens, UniProt P50990).
T1 construct: isolated from HEK-293T cells co-expressing His6-myc-PhLP1; no nucleotide added; with T-complex protein 1 subunit alpha; T-complex protein 1 subunit beta; T-complex protein 1 subunit gamma; T-complex protein 1 subunit delta; T-complex protein 1 subunit epsilon; T-complex protein 1 subunit zeta; T-complex protein 1 subunit eta; Target of rapamycin complex subunit LST8
T1 sequence (P50990 2-548): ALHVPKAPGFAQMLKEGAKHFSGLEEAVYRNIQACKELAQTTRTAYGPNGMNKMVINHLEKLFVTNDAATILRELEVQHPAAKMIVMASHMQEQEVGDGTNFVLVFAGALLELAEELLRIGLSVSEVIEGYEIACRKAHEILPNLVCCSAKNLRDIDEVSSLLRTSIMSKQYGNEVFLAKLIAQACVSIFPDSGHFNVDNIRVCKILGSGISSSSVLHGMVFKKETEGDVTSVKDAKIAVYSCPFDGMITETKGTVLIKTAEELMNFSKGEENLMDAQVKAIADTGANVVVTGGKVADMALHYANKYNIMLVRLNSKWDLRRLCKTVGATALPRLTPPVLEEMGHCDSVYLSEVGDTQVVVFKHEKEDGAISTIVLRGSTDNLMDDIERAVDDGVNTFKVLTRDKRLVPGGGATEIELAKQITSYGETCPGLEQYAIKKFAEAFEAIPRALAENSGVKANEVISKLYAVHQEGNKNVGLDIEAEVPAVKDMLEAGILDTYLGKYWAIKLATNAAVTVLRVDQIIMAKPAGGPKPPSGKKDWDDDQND
As to the kind of experiment: cryo-EM structure of the complex ([…] A). The settings on record: co-purified nucleotide, none added; equatorial nucleotide-binding pocket of both CCT8 subunits.

Consider `Nc1ncnc2c1ncn2[C@@H]1O[C@H](COP(=O)(O)OP(=O)(O)O)[C@@H](O)[C@H]1O` [ADP], for which the “cryo-EM structure of the complex (4.0 A)” value was “nucleotide-binding pocket of either of the CCT8 subunits revealed electron density that is clearly attributable to ADP”.
